# Reference: US9212186B2, “Bicyclic pyrazole LRRK2 small molecule inhibitors” (Genentech, Inc., priority 2012, dated 2015)
# Biological target: LRRK2 G2019S (Homo sapiens (Human), UniProt Q5S007, G2019S)
# Test: In Vitro LRRK2 Lanthascreen Binding Assay
# Experimental: In Vitro LRRK2 Lanthascreen Binding Assay
# This assay was used to determine a compound's potency in inhibiting activity of LRRK2 by determining, Kiapp, IC50, or percent inhibition values. In 384 well proxiplates F black, shallow well plates LRRK2, Eu-anti-GST-antibody, Alexa Fluor® Kinase tracer 236 and test compound were incubated together.
# Binding of the Alexa Fluor® “tracer” to a kinase is detected by addition of a Eu-labeled anti-GST antibody. Binding of the tracer and antibody to a kinase results in a high degree of FRET, whereas displacement of the tracer with a kinase inhibitor results in a loss of FRET.
# Assay conditions and materials used were as follows:
# Final Assay Conditions: • GST-LRRK2 G2019S 10 nM
# Eu-anti-GST-antibody 2 nM • Kinase tracer 236 8.5 nM • Kinase reaction time: 1 hour • Temperature: ambient • Total volume: 15 μl • DMSO 1%
# 384 well proxiplates F black shallow well Perkin Elmer cat #6008260
# Eu-labeled anti-GST antibody Invitrogen cat # PV5594
# Alexa Fluor® Kinase tracer 236 Invitrogen cat #PV5592 • TRIS-HCl Sigma cat # T3253 • EGTA Sigma cat # E3889 • Brij-35: Sigma cat # B4184 (30% w/v) • DMSO: Sigma cat # D8418 • MgCl2 Sigma cat # M9272
# Reaction Buffer: H2O/50 mM Tris, pH 7.4/10 mM MgCl2/1 mM EGTA/0.01% Brij 35
# Compound Plate Preparation:
# Serially dilute test compounds (10 mM stock) 1:3.16 (20 ul+43.2 ul) in 100% DMSO. 12 pt curve. Dilute each concentration 1:33.3 (3 ul+97 ul) in reaction buffer. Stamp 5 ul to assay plate. Final top test concentration 100 uM
# Total and Blank Preparation:
# In Reaction Buffer, 5 ul of DMSO (3%) was added to total and blank wells and 5 ul of Eu-labeled anti-GST antibody (6 nM) was added to blank wells. Add 5 ul LRRK2 (30 nM)/Eu-labeled anti-GST antibody (6 nM) mix to compound and total wells.
# Add 5 ul kinase tracer (25.5 nM) to all wells. Incubate plates at room temperature for 1 hour on a plate shaker (gentle shaking). Read on Perkin Elmer EnVision reader HTRF protocol
# Calculate ratio: (665/620)*10000. Subtract mean background values from all data points. Calculate % of control for each test value. Plot % of control vs Compound concentration. Calculate Ki Value (xlfit curve fitting—Morrison equation). Results expressed as a Ki in μM. Equation for Ki: Y=V0*(1−((x+Ki*(1+S/Km)+Et)/(2*Et)−(((x+Ki*(1+S/Km)+Et)^2−(4*Et*x))^0.5)/(2*Et)))
# Tracer concentration (S)=8.5 nM
# LRRK2 G2019S, sequence (Q5S007 whole entry G2019S): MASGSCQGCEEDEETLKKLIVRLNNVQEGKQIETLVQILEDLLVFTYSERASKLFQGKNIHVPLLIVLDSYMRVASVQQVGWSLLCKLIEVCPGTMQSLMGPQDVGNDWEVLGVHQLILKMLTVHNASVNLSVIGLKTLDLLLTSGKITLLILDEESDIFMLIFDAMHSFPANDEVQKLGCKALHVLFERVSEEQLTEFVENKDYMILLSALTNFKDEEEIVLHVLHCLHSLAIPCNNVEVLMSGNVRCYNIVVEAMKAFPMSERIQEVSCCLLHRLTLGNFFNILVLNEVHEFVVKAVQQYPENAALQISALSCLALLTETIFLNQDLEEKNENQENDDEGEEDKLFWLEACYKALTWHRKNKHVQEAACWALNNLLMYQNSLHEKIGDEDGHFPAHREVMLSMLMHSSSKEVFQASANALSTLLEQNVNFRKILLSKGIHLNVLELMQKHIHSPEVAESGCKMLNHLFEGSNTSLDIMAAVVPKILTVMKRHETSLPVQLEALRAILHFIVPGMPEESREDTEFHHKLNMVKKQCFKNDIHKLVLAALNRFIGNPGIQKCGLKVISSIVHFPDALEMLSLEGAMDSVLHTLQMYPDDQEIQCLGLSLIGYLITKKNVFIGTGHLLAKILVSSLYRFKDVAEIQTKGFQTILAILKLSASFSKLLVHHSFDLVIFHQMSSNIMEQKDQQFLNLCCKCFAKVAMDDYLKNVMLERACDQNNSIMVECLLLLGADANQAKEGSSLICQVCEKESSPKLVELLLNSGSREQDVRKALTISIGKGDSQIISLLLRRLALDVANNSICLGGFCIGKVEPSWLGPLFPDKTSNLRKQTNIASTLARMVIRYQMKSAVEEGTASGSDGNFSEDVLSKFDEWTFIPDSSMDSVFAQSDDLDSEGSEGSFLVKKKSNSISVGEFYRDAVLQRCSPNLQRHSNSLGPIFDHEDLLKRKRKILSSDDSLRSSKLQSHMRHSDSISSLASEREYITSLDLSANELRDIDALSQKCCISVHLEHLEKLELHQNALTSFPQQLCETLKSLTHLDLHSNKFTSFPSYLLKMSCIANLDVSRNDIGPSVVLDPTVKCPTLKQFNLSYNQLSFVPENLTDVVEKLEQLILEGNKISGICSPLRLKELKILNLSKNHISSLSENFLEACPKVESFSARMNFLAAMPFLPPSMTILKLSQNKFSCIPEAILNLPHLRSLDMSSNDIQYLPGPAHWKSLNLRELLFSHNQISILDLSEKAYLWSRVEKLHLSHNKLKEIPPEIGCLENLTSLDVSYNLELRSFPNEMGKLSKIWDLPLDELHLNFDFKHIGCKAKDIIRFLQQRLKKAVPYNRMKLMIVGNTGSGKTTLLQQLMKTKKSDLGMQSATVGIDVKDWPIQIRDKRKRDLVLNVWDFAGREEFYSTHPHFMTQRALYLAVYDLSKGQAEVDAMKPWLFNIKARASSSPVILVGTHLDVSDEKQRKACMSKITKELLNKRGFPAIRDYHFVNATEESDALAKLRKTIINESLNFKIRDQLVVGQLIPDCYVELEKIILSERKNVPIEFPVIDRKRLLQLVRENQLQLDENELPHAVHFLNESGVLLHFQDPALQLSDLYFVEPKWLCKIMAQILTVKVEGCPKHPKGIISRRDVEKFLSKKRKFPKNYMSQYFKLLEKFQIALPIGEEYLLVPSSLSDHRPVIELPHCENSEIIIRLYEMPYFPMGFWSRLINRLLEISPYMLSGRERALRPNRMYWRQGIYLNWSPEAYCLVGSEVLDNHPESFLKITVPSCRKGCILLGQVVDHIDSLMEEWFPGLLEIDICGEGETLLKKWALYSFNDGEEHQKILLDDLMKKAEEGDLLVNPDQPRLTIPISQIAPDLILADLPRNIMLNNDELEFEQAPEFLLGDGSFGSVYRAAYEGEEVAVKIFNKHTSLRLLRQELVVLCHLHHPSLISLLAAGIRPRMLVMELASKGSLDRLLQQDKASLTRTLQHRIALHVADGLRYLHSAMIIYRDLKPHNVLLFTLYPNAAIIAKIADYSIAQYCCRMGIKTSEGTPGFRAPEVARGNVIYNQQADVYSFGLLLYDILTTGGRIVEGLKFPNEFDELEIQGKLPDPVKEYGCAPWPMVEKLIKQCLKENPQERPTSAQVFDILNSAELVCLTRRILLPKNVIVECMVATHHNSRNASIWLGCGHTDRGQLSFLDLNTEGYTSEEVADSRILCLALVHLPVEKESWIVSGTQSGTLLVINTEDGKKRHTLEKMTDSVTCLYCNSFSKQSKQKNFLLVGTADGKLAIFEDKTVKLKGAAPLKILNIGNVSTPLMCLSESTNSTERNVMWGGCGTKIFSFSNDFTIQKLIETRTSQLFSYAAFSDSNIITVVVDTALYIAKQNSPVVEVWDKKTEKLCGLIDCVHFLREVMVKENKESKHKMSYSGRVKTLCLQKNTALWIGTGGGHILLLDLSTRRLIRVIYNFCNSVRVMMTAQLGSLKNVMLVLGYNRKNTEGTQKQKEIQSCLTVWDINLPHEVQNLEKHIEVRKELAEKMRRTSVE
row,Structure (SMILES),Ki [nM]
1,"CNc1nc(Nc2cnn3c2C2(COC2)OCC3)ncc1C(F)(F)F [Example 27, N^2-(6′7′-dihydrospiro[oxetane-3,4′-pyrazolo[5,1-c][1,4]oxazine]-3-yl)-N^4-methyl-5-(trifluoromethyl)pyrimidine-2,4-diamine]",819
2,"CNc1nc(Nc2cnn3c2COCC3)ncc1C(F)(F)F [Example 17, N2-(6,7-dihydro-4H-pyrazolo[5,1-c][1,4]oxazin-3-yl)-N4-methyl-5-(trifluoromethyl)pyrimidine-2,4-diamine]",2.3
3,"CCNc1nc(Nc2cnn3c2[C@H](C)N(C)CC3)ncc1C(F)(F)F [Example 7, (S)-N2-(4,5-dimethyl-4,5,6,7-tetrahydropyrazolo[1,5-a]pyrazin-3-yl)-N4-ethyl-5-(trifluoromethyl)pyrimidine-2,4-diamine]",9.5
4,"CNc1nc(Nc2cnn3c2COC(C)(C)C3)ncc1C(F)(F)F [Example 22, N2-(6,6-dimethyl-6,7-dihydro-4H-pyrazolo[5,1-c][1,4]oxazin-3-yl)-N4-methyl-5-(trifluoromethyl)pyrimidine-2,4-diamine]",0.9
5,"CNc1nc(Nc2cnn3c2CN(C)CC3)ncc1C(F)(F)F [Example 26, N^4-methyl-N^2-(5-methyl-4,5,6,7-tetrahydropyrazolo[1,5-a]pyrazin-3-yl)-5-(trifluoromethyl)pyrimidine-2,4-diamine]",33.5
6,"CCNc1nc(Nc2cnn3c2C(C)OCC3)ncc1C(F)(F)F (single isomer, unassigned) [Example 14, N4-ethyl-N2-(4-methyl-6,7-dihydro-4H-pyrazolo[5,1-c][1,4]oxazin-3-yl)-5-(trifluoromethyl)pyrimidine-2,4-diamine]",1.2
7,"CNc1nc(Nc2cnn3c2CCC3)ncc1C(F)(F)F [Example 24, N2-(5,6-dihydro-4H-pyrrolo[1,2-b]pyrazol-3-yl)-N4-methyl-5-(trifluoromethyl)pyrimidine-2,4-diamine]",0.6
8,"CNc1nc(Nc2cnn3c2C(C)OCC3)ncc1C(F)(F)F (single isomer, unassigned) [Example 16, N4-methyl-N2-(4-methyl-6,7-dihydro-4H-pyrazolo[5,1-c][1,4]oxazin-3-yl)-5-(trifluoromethyl)pyrimidine-2,4-diamine]",3
9,"CNc1nc(Nc2cnn3c2CCCC3)ncc1C(F)(F)F [Example 3, N4-methyl-N2-(4,5,6,7-tetrahydropyrazolo[1,5-a]pyridin-3-yl)-5-(trifluoromethyl)pyrimidine-2,4-diamine]",7.5
10,"CCNc1nc(Nc2cnn3c2COC(C)(C)C3)ncc1C(F)(F)F [Example 23, N2-(6,6-dimethyl-6,7-dihydro-4H-pyrazolo[5,1-c][1,4]oxazin-3-yl)-N4-ethyl-5-(trifluoromethyl)pyrimidine-2,4-diamine]",0.3
11,"CNc1nc(Nc2cnn3c2[C@@H](C)N(C)CC3)ncc1C(F)(F)F [Example 6, (R)-N2-(4,5-dimethyl-4,5,6,7-tetrahydropyrazolo[1,5-a]pyrazin-3-yl)-N4-methyl-5-(trifluoromethyl)pyrimidine-2,4-diamine]",184
12,"CNc1nc(Nc2cnn3c2C(C)OC(C)C3)ncc1C(F)(F)F (stereo not shown) [Example 18, N2-(4,6-dimethyl-6,7-dihydro-4H-pyrazolo[5,1-c][1,4]oxazin-3-yl)-N4-methyl-5-(trifluoromethyl)pyrimidine-2,4-diamine]",1.8
13,"CNc1nc(Nc2cnn3c2C(C)OC(C)C3)ncc1C(F)(F)F (single isomer, unassigned) [Example 20, N2-(4,6-dimethyl-6,7-dihydro-4H-pyrazolo[5,1-c][1,4]oxazin-3-yl)-N4-methyl-5-(trifluoromethyl)pyrimidine-2,4-diamine]",5.7
14,"CNc1nc(Nc2cnn3c2C(C)OCC3(C)C)ncc1C(F)(F)F (stereo not shown) [Example 11, N4-methyl-5-(trifluoromethyl)-N2-(4,7,7-trimethyl-6,7-dihydro-4H-pyrazolo[5,1-c][1,4]oxazin-3-yl)pyrimidine-2,4-diamine]",212
15,"CNc1nc(Nc2cnn3c2[C@H](C)N(C)CC3)ncc1C(F)(F)F [Example 5, (S)-N2-(4,5-dimethyl-4,5,6,7-tetrahydropyrazolo[1,5-a]pyrazin-3-yl)-N4-methyl-5-(trifluoromethyl)pyrimidine-2,4-diamine]",20
16,"C[C@H]1c2c(Nc3ncc(C(F)(F)F)c(NC4CC4)n3)cnn2CCN1C [Example 9, (S)-N4-cyclopropyl-N2-(4,5-dimethyl-4,5,6,7-tetrahydropyrazolo[1,5-a]pyrazin-3-yl)-5-(trifluoromethyl)pyrimidine-2,4-diamine]",4.9
17,"CNc1nc(Nc2cnn3c2C(C)OC(C)C3)ncc1C(F)(F)F (single isomer, unassigned) [Example 21, N2-(4,6-dimethyl-6,7-dihydro-4H-pyrazolo[5,1-c][1,4]oxazin-3-yl)-N4-methyl-5-(trifluoromethyl)pyrimidine-2,4-diamine]",390
18,"CNc1nc(Nc2cnn3c2C(C)OCC3)ncc1C(F)(F)F (stereo not shown) [Example 15, N4-methyl-N2-(4-methyl-6,7-dihydro-4H-pyrazolo[5,1-c][1,4]oxazin-3-yl)-5-(trifluoromethyl)pyrimidine-2,4-diamine]",279
19,"C[C@@H]1c2c(Nc3ncc(C(F)(F)F)c(NC4CC4)n3)cnn2CCN1C [Example 10, (R)-N4-cyclopropyl-N2-(4,5-dimethyl-4,5,6,7-tetrahydropyrazolo[1,5-a]pyrazin-3-yl)-5-(trifluoromethyl)pyrimidine-2,4-diamine]",44.4
20,"CCNc1nc(Nc2cnn3c2C(C)OCC3)ncc1C(F)(F)F (stereo not shown) [Example 13, N4-ethyl-N2-(4-methyl-6,7-dihydro-4H-pyrazolo[5,1-c][1,4]oxazin-3-yl)-5-(trifluoromethyl)pyrimidine-2,4-diamine]",47.7
21,"CNc1nc(Nc2cc3n(n2)CCOC3)ncc1C(F)(F)F [Example 30, N^2-(6,7-dihydro-4H-pyrazolo[5,1-c][1,4]oxazin-2-yl)-N^4-methyl-5-(trifluoromethyl)pyrimidine-2,4-diamine]",10.9
22,"CCNc1nc(Nc2cnn3c2[C@@H](C)N(C)CC3)ncc1C(F)(F)F [Example 8, (R)-N2-(4,5-dimethyl-4,5,6,7-tetrahydropyrazolo[1,5-a]pyrazin-3-yl)-N4-ethyl-5-(trifluoromethyl)pyrimidine-2,4-diamine]",144
23,"CNc1nc(Nc2cnn3c2C(C)OCC3(C)C)ncc1C(F)(F)F (single isomer, unassigned) [Example 12, N4-methyl-5-(trifluoromethyl)-N2-(4,7,7-trimethyl-6,7-dihydro-4H-pyrazolo[5,1-c][1,4]oxazin-3-yl)pyrimidine-2,4-diamine]",2.6
24,"CNc1nc(Nc2cnn3c2C(C)OC(C)C3)ncc1C(F)(F)F (single isomer, unassigned) [Example 19, N2-(4,6-dimethyl-6,7-dihydro-4H-pyrazolo[5,1-c][1,4]oxazin-3-yl)-N4-methyl-5-(trifluoromethyl)pyrimidine-2,4-diamine]",61.3
25,"CNc1nc(Nc2cnn3c2N(C)CC3)ncc1C(F)(F)F [Example 25, N4-methyl-N2-(1-methyl-2,3-dihydro-1H-imidazo[1,2-b]pyrazol-7-yl)-5-(trifluoromethyl)pyrimidine-2,4-diamine]",31.2
